Measurements reported in patent US11236067B2, “Compound for treating cystic fibrosis” (ORPHOMED, INC., priority 2019, dated 2022).
In brackets after ≈: the same amount, converted by molar mass. Entries after “also recorded” stand apart in the source; their conditions may differ.

How the values were obtained:
[1] = Solubility by nephelometry (turbidity) in HEPES-buffered physiological saline with 0.3% DMSO; type: physicochemical; details: HB-PS with 0.3% DMSO; for solubility: HEPES-buffered physiological saline with 0.3% DMSO, aqueous buffer, kinetic from dmso stock, interpolated from solubility and turbidity plots, read-out: Solubility limit
Protocol: Solubility of the compound of Formula I (Compound 10) and ivacaftor was evaluated in HEPES-buffered physiological saline solution (HB-PS) with 0.3% DMSO. Solubility was measured as absence of turbidity using microparticualtes light-scattering technology in nephelometer and output expressed as nephelometry turbidity units (NTU). The HEPES buffer with 0.3% DMSO was the media used for the Ussing Chamber assays as described below. Concentrations of Compound 10 and ivacaftor tested in duplicate were 0, 0.01, 0.03, 0.1, 0.3, 1, 3, 10, 30 μM. The NIST traceable reference standard at 0, 0.2, 0.6 and 1 NTU were measured in duplicate as a reference standard for turbidity. The NTU values were plotted against the concentrations of Compound 10 and ivacaftor.

[2] = Metabolic stability in human liver microsomes with NADPH generating system; type: in vitro ADME; details: for Substrate remaining (%) / Substrate loss (%) / microsomal CLint at 1 uM / half-life at 1 uM: 1 μM substrate; for microsomal CLint at 1 uM: read-out: Estimated in vitro intrinsic clearance (μL/min/mg protein); for half-life at 1 uM: read-out: Half-life estimated from single exponential decay; for Metabolic stability (in words): substrate in the presence of human liver microsomes
Protocol: The compound of Formula I (Compound 10) (1 uM) and ivacaftor (1 uM) were incubated with human liver microsomes (1 mg/mL protein/mL) in the presence of NADPH generating system (NADP (1 mM, ph7, glucose-6-phosphate (5 mM ph 7.4) and glucose-6-phosphate dehydrogenase (1 Unit/mL) for 0, 30, 60, and 120 minutes. Remaining substrate was measured by LC-MS/MS. Concentration of the test article was converted to percent drug remaining relative to the concentration of the test article at Time Zero.

[3] = target: T1, F508del CFTR (Homo sapiens, UniProt P13569, DEL508-508); test: CFTR potentiator activity, Ussing chamber assay in primary bronchial epithelia (CFhBE); type: cell-based
T1 construct: human primary bronchial epithelia obtained from donors with the homozygous F508del CFTR missense mutation (CFhBE); endogenous in cells; host or cells: human primary bronchial epithelial cells (CFhBE) from donors homozygous for F508del
Protocol: Chloride ion channel potentiator activity of the compound of Formula I (Compound 10) and ivacaftor was evaluated in monlayer cultures of human primary bronchial epithelia obtained from donors with the homozygous F508del CFTR missense mutation (CFhBE) using Ussing assay technology.
The Ussing chamber assay is a well-established method for measurement of transport across epithelia of a wide variety of transport substrates (Clark, American Journal of Physiology.Gastrointestinal and liver Physiology, 2009, 296, G1151-1166). The Ussing half-chambers permit both apical and basolateral surfaces of an epithelium to be exposed to identical solutions, eliminating the chemical concentration gradient for movement of molecules across the epithelium. Under these symmetric solution conditions, the epithelium generates a transepithelial potential by activity of ion selective channels and active transport processes asymmetrically distributed in apical and basolateral membranes. The epithelium is maintained at a potential difference of 0 mV. The negative feedback circuit used for controlling the potential difference at 0 mV is called a voltage clamp circuit. Any current generated by the voltage clamp to maintain the transepithelial potential at 0 mV can arise only from biological active transport processes in the epithelial cells and the current (called short circuit current (ISC)) is a direct measure of these processes. Efflux of chloride to the apical surface is enabled by opening of apical CFTR channels, which allows water to move to the cellular surface and keep the tissue hydrated.

[4] = human liver microsomes, 120 min

T1 sequence (P13569 with tags, fused parts or gaps DEL508-508): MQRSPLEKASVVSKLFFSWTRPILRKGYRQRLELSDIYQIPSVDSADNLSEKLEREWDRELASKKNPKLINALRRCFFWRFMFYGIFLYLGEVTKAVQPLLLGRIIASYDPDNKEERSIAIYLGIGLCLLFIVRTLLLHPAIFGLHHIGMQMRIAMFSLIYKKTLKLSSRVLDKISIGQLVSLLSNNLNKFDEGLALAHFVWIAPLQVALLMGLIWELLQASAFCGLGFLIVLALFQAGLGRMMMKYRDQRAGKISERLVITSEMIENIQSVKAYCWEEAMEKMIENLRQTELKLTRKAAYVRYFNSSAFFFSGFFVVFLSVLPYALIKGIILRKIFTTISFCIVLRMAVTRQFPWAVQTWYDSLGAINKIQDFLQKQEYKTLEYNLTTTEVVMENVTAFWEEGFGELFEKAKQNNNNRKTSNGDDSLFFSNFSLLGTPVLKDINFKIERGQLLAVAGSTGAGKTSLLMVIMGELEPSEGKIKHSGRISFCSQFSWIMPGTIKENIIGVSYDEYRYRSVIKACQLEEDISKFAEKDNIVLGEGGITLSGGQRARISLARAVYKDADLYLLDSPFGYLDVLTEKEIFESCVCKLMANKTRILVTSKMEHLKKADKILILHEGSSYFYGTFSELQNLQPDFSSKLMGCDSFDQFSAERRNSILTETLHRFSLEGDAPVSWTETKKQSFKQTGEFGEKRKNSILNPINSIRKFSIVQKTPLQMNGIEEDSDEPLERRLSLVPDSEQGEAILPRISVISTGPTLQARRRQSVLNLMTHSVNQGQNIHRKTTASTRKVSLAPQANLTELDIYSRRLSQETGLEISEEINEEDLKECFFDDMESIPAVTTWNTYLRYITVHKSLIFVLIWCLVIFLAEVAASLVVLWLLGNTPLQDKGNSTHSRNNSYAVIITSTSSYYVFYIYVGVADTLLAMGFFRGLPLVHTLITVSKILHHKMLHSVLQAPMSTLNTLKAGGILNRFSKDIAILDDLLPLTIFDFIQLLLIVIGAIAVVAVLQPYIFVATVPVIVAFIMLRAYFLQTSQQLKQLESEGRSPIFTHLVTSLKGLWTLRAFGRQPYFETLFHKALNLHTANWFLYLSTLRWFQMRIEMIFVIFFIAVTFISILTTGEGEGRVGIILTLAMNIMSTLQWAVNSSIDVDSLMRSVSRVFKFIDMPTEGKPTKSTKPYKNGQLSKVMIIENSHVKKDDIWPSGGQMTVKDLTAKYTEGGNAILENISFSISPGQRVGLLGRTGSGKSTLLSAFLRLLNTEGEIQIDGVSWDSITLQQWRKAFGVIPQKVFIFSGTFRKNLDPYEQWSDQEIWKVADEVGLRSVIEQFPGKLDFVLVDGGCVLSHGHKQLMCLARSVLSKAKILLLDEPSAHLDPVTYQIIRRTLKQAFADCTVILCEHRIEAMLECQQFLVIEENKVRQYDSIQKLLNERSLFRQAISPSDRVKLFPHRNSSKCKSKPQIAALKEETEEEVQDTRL

SMILES: CC(C)(C)c1cc(C(C)(C)C)c(NC(=O)c2c[nH]c3ccccc3c2=O)cc1O [ivacaftor, reference compound]
- solubility [1]: 7.86 µM (≈ 3.09 µg/mL)
- Substrate remaining (%) ([2]; human liver microsomes, 0 min): 100%
- Substrate loss (%) ([2]; human liver microsomes, 30 min): 30.4%
- Substrate remaining (%) ([2]; human liver microsomes, 30 min): 69.6%
- Substrate loss (%) ([2]; human liver microsomes, 60 min): 49.1%
- Substrate remaining (%) ([2]; human liver microsomes, 60 min): 50.9%
- Substrate loss (%) [2, 4]: 69.5%
- Substrate remaining (%) [2, 4]: 30.5%
- microsomal CLint at 1 uM ([2]; human liver microsomes): 10.6 µL/min/mg
- half-life at 1 uM ([2]; human liver microsomes): 1.09 h
- Fraction metabolized ([2]; incubated with human liver microsomes (text summary of Table 1)): ~70%

SMILES: CC(C)(C)c1cc(C(C)(C)C)c(OCCOc2cc(NC(=O)c3c[nH]c4ccccc4c3=O)c(C(C)(C)C)cc2C(C)(C)C)cc1NC(=O)c1c[nH]c2ccccc2c1=O [Compound of Formula I, N,N′-((ethane-1,2-diylbis(oxy))bis(2,4-di-tert-butyl-5,1-phenylene))bis(4-oxo-1,4-dihydroquinoline-3-carboxamide)]
- Solubility relative to ivacaftor (times less soluble) [1]: 57.4 times
- solubility [1]: 0.137 µM
- Metabolism back to ivacaftor or ivacaftor metabolites (in words) ([2]; human liver microsomes): not to substantially metabolize to ivacaftor, hydroxymethyl-ivacaftor or ivacaftor-carboxylate; also recorded: does not revert back to ivacaftor
- Substrate remaining (%) ([2]; human liver microsomes, 0 min): 100%
- Substrate loss (%) ([2]; human liver microsomes, 30 min): No loss
- Substrate remaining (%) ([2]; human liver microsomes, 30 min): 108%
- Substrate loss (%) ([2]; human liver microsomes, 60 min): No loss
- Substrate remaining (%) ([2]; human liver microsomes, 60 min): 107%
- Substrate loss (%) [2, 4]: No loss
- Substrate remaining (%) [2, 4]: 120%
- microsomal CLint at 1 uM ([2]; human liver microsomes): < 5.78 µL/min/mg
- half-life at 1 uM ([2]; human liver microsomes): > 2 h
- Metabolic stability (in words) [2]: metabolically stable
- Metabolic stability (in words) ([2]; listed as compound represented by Formula I): chemically and metabolically stable
- Potency relative to ivacaftor (times more potent) ([3]; based on solubility difference between the compound and ivacaftor): at least 15 times
- Potentiator response (in words) ([3]; homozygous F508del CFhBE monolayers, short circuit current, FIGS. 2A and 2B): potentiator response is similar to ivacaftor; also recorded: potentiated F508del CFTR
- Duration/stability of potentiator response (in words) ([3]; homozygous F508del CFhBE, FIGS. 2A and 2B): appears to remain stable longer than ivacftor
